For this assay, the target named is T1, human TLR8 (hTLR8) (Homo sapiens, UniProt Q9NR97).
T1 construct: expressed in transfected cells
T1 sequence (Q9NR97 27-1041): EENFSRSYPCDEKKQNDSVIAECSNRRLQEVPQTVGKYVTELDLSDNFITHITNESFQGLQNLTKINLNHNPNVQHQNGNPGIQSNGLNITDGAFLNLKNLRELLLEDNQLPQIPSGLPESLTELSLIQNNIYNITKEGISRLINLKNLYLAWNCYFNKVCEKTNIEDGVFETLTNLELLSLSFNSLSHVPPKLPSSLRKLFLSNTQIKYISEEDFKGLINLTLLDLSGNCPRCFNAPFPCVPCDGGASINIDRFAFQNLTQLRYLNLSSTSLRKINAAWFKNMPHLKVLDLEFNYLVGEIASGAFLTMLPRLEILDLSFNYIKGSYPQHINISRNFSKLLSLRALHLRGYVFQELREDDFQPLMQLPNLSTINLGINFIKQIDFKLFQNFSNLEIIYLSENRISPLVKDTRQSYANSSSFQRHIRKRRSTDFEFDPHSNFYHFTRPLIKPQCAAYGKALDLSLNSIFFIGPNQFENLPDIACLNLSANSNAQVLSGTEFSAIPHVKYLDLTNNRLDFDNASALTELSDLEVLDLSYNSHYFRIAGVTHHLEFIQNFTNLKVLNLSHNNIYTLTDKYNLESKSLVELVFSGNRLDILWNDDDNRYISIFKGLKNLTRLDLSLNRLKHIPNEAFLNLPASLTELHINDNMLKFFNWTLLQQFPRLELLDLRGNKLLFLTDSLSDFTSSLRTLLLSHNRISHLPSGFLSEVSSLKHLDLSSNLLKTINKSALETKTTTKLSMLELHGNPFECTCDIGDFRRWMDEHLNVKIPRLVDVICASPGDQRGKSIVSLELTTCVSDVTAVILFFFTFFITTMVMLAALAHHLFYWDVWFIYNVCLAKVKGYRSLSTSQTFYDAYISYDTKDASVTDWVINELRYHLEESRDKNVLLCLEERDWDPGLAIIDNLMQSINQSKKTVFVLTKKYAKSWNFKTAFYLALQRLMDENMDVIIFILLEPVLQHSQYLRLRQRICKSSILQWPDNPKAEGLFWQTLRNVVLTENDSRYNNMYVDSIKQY
Nature of the assay: Antagonist screen, hTLR8-NFκB-293 cells, NF-κB-luciferase reporter, with EC50 of R848. Format: cell-based. The note with it: compound at 0.5, 5, 50 μg/ml; EC50 concentration of R848; 16 h; NF-κB-luciferase. How it is done: The method is described in greater detail as follows. The cells for each individual cell clone (hTLR3-NFκB-293, hTLR7-NFκB-293, hTLR8-NFκB-293 and hTLR9-NFκB-293) were counted and seeded one day before the stimulation at 1.5×10^4 cells per well in 96-well cell culture plates. To become adherent the cells were incubated after seeding overnight at 37° C. in 5% CO2 humidified air.
The screen for each compound was performed at the same time for all of the receptors TLR3, TLR7, TLR8 and TLR9. Up to fifteen test compounds, each assayed in duplicate at each of three different final concentrations (0.5 μg/ml, 5 μg/ml, and 50 μg/ml), were used for 16 h cell stimulation on a single multiwell culture plate. A 4× final concentration master plate was created to prepare the different test compounds before they were added to the cells.
Controls were added as duplicates individually for each cell clone on the cell culture plate. Positive controls were used as follows (final concentrations): 50 μg/ml poly(I:C) for hTLR3-NFκB-293; 8 μM resiquimod (R848) for hTLR7-NFκB-293; 30 μM R848 for hTLR8-NFκB-293; and 2.5 μM CpG-ODN 2006 for hTLR9-NFκB-293. Media alone was used as negative control. After addition of controls and small molecules, the cell clones were additionally stimulated with the EC50 concentration of the appropriate receptor-specific ligand.
The mean value of wells H2 and H5 (each with cells and EC50 concentration of the appropriate receptor-specific ligand) divided by the mean of wells H3 and H6 (each with cells alone) yielded the baseline response (i.e., fold induction of luciferase activity) to EC50 concentration of the appropriate receptor-specific ligand.
After 16 h stimulation the supernatant was removed and the cells treated with lysis buffer and stored at −80° C. before measuring.
For each screen result a graphical documentation was performed.
The baseline result (measured with addition of the EC50 concentration of the receptor-specific ligand) for each cell culture plate was measured as described above. Antagonistic effects were measured by down regulation compared to the baseline. Antagonists were scored as follows: • 13: compounds for which there was clear down regulation at 0.5 μg/ml, 5 μg/ml, and 50 μg/ml; • 12: compounds for which there was clear down regulation at 5 μg/ml and 50 μg/ml; • 11: compounds for which there was clear down regulation only at 50 μg/ml; • —: compounds for which there was no clear down regulation even at 50 μg/ml. Agonists
Results were expressed as fold induction over baseline luciferase activity measured in the absence of R848. […] Additional screening was performed in like manner using additional small molecules selected from another library or specifically prepared for this purpose. Scoring is reported as above but as applied to TLR8.
(In a reporter assay the amount or activity of a reporter protein is the signal.)
With `C=CCc1ccccc1OC1(c2ccccc2)OC(=O)c2ccccc21` (centres unmarked) [compound 957], the “hTLR8 (inhibitory effect, antagonist score)” value is “— (compounds for which there was no clear down regulation even at 50 μg/ml)”.

Turning to `COC(=O)c1ccc(C2CC(=O)Nc3c2ccc2ccccc32)cc1` (centres unmarked) [compound 965], the “hTLR8 (inhibitory effect, antagonist score)” value is reported as “— (compounds for which there was no clear down regulation even at 50 μg/ml)”.

As to `O=C(O)c1ccc(C2(c3ccc(C(=O)O)cc3)OC(=O)c3ccccc32)cc1` [compound 970], the “hTLR8 (inhibitory effect, antagonist score)” value is reported as “— (compounds for which there was no clear down regulation even at 50 μg/ml)”.

As for `Cc1cc(OC(=O)C2C3CCCCC32)c(C(C)C)cc1C1(c2cc(C(C)C)c(OC(=O)C3C4CCCCC43)cc2C)OC(=O)c2ccccc21` (centres unmarked) [compound 974], the “hTLR8 (inhibitory effect, antagonist score)” value is 11 (compounds for which there was clear down regulation only at 50 μg/ml).

On to `CCN(CC)CCCN(CC(=O)C1c2ccc(Cl)cc2NC(=O)c2ccccc21)C(=O)c1ccccc1` (centres unmarked) [compound 1013], for which the “hTLR8 (inhibitory effect, antagonist score)” value is “— (compounds for which there was no clear down regulation even at 50 μg/ml)”.

Consider `O=C1c2ccccc2C(=O)c2c1ccc1c(=O)n(C3CCCCC3)[nH]c21` [compound 1015], for which the “hTLR8 (inhibitory effect, antagonist score)” value is on record as 11 (compounds for which there was clear down regulation only at 50 μg/ml).

Take `CCOC(=O)c1cc([N+](=O)[O-])cc2c1-c1ccc([N+](=O)[O-])cc1C2=C(C#N)C#N` [compound 1039]: the “hTLR8 (inhibitory effect, antagonist score)” value is given as 11 (compounds for which there was clear down regulation only at 50 μg/ml).

As for `O=C1c2ccccc2C(=O)c2c1ccc1c(=O)n(-c3ccccc3)[nH]c21` [compound 1042], the “hTLR8 (inhibitory effect, antagonist score)” value was 13 (compounds for which there was clear down regulation at 0.5 μg/ml, 5 μg/ml, and 50 μg/ml).

As for `O=C(c1cccc2c1-c1ccccc1/C2=N\O)N1CCCCC1` [compound 1050], the “hTLR8 (inhibitory effect, antagonist score)” value is 11 (compounds for which there was clear down regulation only at 50 μg/ml).

With `NC(=O)c1cccc2c1-c1ccccc1C2` [compound 1132], the “hTLR8 (inhibitory effect, antagonist score)” value is listed as 11 (compounds for which there was clear down regulation only at 50 μg/ml).

As for `NC(=O)c1cc(N)c2c(c1N)C(=O)c1ccccc1C2=O` [compound 1158], the “hTLR8 (inhibitory effect, antagonist score)” value is recorded as “— (compounds for which there was no clear down regulation even at 50 μg/ml)”.

Turning to `CC(=O)Oc1cc(C)c(C2(c3cc(C(C)C)c(OC(C)=O)cc3C)OC(=O)c3ccccc32)cc1C(C)C` [compound 1161], the “hTLR8 (inhibitory effect, antagonist score)” value is 12 (compounds for which there was clear down regulation at 5 μg/ml and 50 μg/ml).

Turning to `COC(=O)c1cccc(C(O)(c2ccccc2)c2ccccc2)c1S(=O)(=O)C(C)(C)C` [compound 1187], the “hTLR8 (inhibitory effect, antagonist score)” value was 11 (compounds for which there was clear down regulation only at 50 μg/ml).

As for `CCOCCOC(=O)c1cc([N+](=O)[O-])cc2c1-c1c(cc([N+](=O)[O-])cc1[N+](=O)[O-])C2=C(C#N)C#N` [compound 1241], the “hTLR8 (inhibitory effect, antagonist score)” value is recorded as “— (compounds for which there was no clear down regulation even at 50 μg/ml)”.

On to `CC1CCN(C(=O)c2cccc3c2-c2ccccc2C3=O)CC1` [compound 1243], for which the “hTLR8 (inhibitory effect, antagonist score)” value is reported as 11 (compounds for which there was clear down regulation only at 50 μg/ml).

Take `Cc1cccc(C2(c3cccc(C)c3)OC(=O)c3ccccc32)c1` [compound 1308]: the “hTLR8 (inhibitory effect, antagonist score)” value is 12 (compounds for which there was clear down regulation at 5 μg/ml and 50 μg/ml).

In the case of `COCCCNC(=O)c1ccc2c(c1N)C(=O)c1ccccc1C2=O` [compound 1337], the “hTLR8 (inhibitory effect, antagonist score)” value is on record as 11 (compounds for which there was clear down regulation only at 50 μg/ml).

In the case of `O=C1Nc2ccccc2Oc2ccc([N+](=O)[O-])cc21` [compound 1352], the “hTLR8 (inhibitory effect, antagonist score)” value is given as “— (compounds for which there was no clear down regulation even at 50 μg/ml)”.

With Flunarizinehydrochloride [compound 312], the “hTLR8 (inhibitory effect, antagonist score)” value is listed as “— (compounds for which there was no clear down regulation even at 50 μg/ml)”.

Turning to Maprotilinehydrochloride [compound 346], the “hTLR8 (inhibitory effect, antagonist score)” value is 11 (compounds for which there was clear down regulation only at 50 μg/ml).

Take Metixene hydrochloride [compound 491]: the “hTLR8 (inhibitory effect, antagonist score)” value was 11 (compounds for which there was clear down regulation only at 50 μg/ml).

For “Prochlorperazinedimaleate [compound 399]”, the “hTLR8 (inhibitory effect, antagonist score)” value is on record as 11 (compounds for which there was clear down regulation only at 50 μg/ml).

For the compound “Trifluoperazinedihydrochloride [compound 313]”, the “hTLR8 (inhibitory effect, antagonist score)” value is listed as 11 (compounds for which there was clear down regulation only at 50 μg/ml).
